Test results as given in publication PMC6539005, “Half-Wave Potentials and In Vitro Cytotoxic Evaluation of 3-Acylated 2,5-Bis(phenylamino)-1,4-benzoquinones on Cancer Cells” (Molecules, 2019).

Key:
[1] = tested on: HEK-293 kidney cells; test: MTT cytotoxicity assay, HEK-293; format: cell-based; settings: Homo sapiens, HEK293, non-tumor cells, 48 h incubation (b12: 72 h), n = 3, read-out: IC50 ± SEM HEK-293
Experimental: (§1) The 3-acyl-2,5-bis(phenylamino)-1,4-benzoquinones 2a–q were evaluated for their in vitro cytotoxic activities against normal human embryonic kidney cells (HEK-293 cells) and two human cancer cell lines (T24 and DU-145 cells) in 72 h drug exposure assays. The cytotoxic activities of the new compounds were measured using conventional microculture tetrazolium reduction assays. The cytotoxic activities are expressed in terms of IC50. Doxorubicin, a clinically used anti-cancer agent, was taken as a positive control.
(§2) Human cancer cell lines T24 (bladder) and DU-145 (prostate), and non-tumor HEK-293 cells were obtained from the American Type Culture Collection (ATCC, Manassas, VA, USA). The cultures were maintained at a density of 1× 10^5 cells/mL and the medium was changed at 48- to 72-h intervals. They were cultured in high-glucose Dulbecco’s modified Eagle medium (Gibco, Grand Island, NY, USA) supplemented with 10% fetal calf serum, penicillin (100 U/mL), and streptomycin (100 μg/mL). All cultures were kept at 37 °C in 95% air/5% CO2 at 100% humidity. Phosphate-buffered saline (PBS) was purchased from Gibco. Cells were incubated at the indicated times at 37 °C, with or without quinones at various concentrations.
(§3) The cytotoxicity of the quinones was assessed by following the reduction of MTT (3-(4,5-Dimethylthiazol-2-yl)-2,5-diphenyltetrazolium bromide) to formazan blue. Cells were seeded into 96-well plates at a density of 10,000 cells/well for 24 h and then incubated for 48 h, with or without the quinone derivatives. Doxorubicin was used as the standard chemotherapeutic agent (positive control). Cells were then washed twice with warm PBS and incubated with MTT (0.5 mg/mL) for 2 hours at 37 °C. Blue formazan crystals were solubilized by adding 100 µL DMSO/well, and the optical density of the coloured solutions was subsequently read at 550 nm. Results are expressed as percentage of MTT reduction, compared to untreated control conditions. The IC50 values were calculated using the GraphPad Prism software (San Diego, CA, USA).

[2] = tested on: T24 and DU-145 cells; test: MTT cytotoxicity assay, both cancer cell lines; format: cell-based; settings: Homo sapiens; mean of T24 and DU-145 IC50
Experimental: as §1, §2, §3

[3] = tested on: HRAS; test: qPCR relative gene expression in T24 cells, HRAS; format: cell-based, human; settings: 48 h; 2c at 32 µM, 2d at 68 µM; normalized to B2M, 2^−ΔΔCt vs vehicle; mean ± SEM, n = 5
Experimental: (§4) The T24 cells were cultured as previously mentioned. They were seeded into 6-well plates (2 × 10^5 cells/well) and, after 24 h of incubation, they were treated for 48 h with 2c and 2d (at 32 and 68 µM, respectively). Afterwards, they were washed with phosphate-buffered saline. The cellular lysate was prepared with E.Z.N.A.® RNA-Lock Reagent (Omega Bio-tek, Norcross, GA, USA) to preserve and immediately stabilize the total RNA for the subsequent gene expression assays. The total RNA isolated from the cells using the E.Z.N.A.® HP Total RNA Isolation Kit (Omega Bio-tek) was reverse-transcribed to cDNA using the AffinityScript QPCR cDNA Synthesis Kit (Agilent Technologies, Santa Clara, CA, USA) and 1000 ng of the RNA sample.
(§5) The cDNA synthesized was employed for qPCR using Brilliant III Ultra-Fast SYBR® Green QPCR Master Mix (Agilent Technologies) in a Mx3000P qPCR System (Agilent Technologies), employing a 96-well plate with 20 μL of PCR reaction per well and 10 pmol each of forward and reverse gene-specific primers. Ten genes were analyzed (see Table 4). The relative gene expressions were determined using Beta-2-microglobulin (B2M) as housekeeping, and the delta-delta Ct method (2^−ΔΔCt method) with regard to the vehicle-treated group (i.e., the reference group). Five biological replicates were used from each group (treated and reference group). […]

[4] = tested on: HDAC3; test: qPCR relative gene expression in T24 cells, HDAC3; format: cell-based, human; settings: 48 h; 2c at 32 µM, 2d at 68 µM; normalized to B2M, 2^−ΔΔCt vs vehicle; mean ± SEM, n = 5
Experimental: as §4, §5

[5] = tested on: HDAC4; test: qPCR relative gene expression in T24 cells, HDAC4; format: cell-based, human; settings: 48 h; 2c at 32 µM, 2d at 68 µM; normalized to B2M, 2^−ΔΔCt vs vehicle; mean ± SEM, n = 5
Experimental: as §4, §5

[6] = tested on: mTOR; test: qPCR relative gene expression in T24 cells, mTOR; format: cell-based, human; settings: 48 h; 2c at 32 µM, 2d at 68 µM; normalized to B2M, 2^−ΔΔCt vs vehicle; mean ± SEM, n = 5
Experimental: as §4, §5

[7] = tested on: T24 (bladder) cells; test: MTT cytotoxicity assay, T24; format: cell-based, human; settings: Homo sapiens, 48 h incubation (b12: 72 h), n = 3, read-out: IC50 ± SEM T24
Experimental: as §1, §2, §3

[8] = tested on: GSR; test: qPCR relative gene expression in T24 cells, GSR; format: cell-based, human; settings: 48 h; 2c at 32 µM, 2d at 68 µM; normalized to B2M, 2^−ΔΔCt vs vehicle; mean ± SEM, n = 5
Experimental: as §4, §5

[9] = Half-wave potentials by cyclic voltammetry in acetonitrile; format: physicochemical; settings: rt, Pt electrode, vs non-aqueous Ag/Ag+, given as negative of potential; for −E^I 1/2: first one-electron reduction, 0.1 M tetraethylammonium tetrafluoroborate; for −E^II 1/2: second one-electron reduction
Experimental: The members of the 3-acyl-2,5-bis(phenylamino)-1,4-benzoquinone series 2a–q were evaluated for their half-wave potentials (E^I 1/2 and E^II 1/2). They were measured by cyclic voltammetry in acetonitrile at room temperature, using a platinum electrode and 0.1 M tetraethylamoniumtetrafluoroborate as the supporting electrolyte. The voltammograms were run in the potential range from 0.0 to −2.0 V versus non-aqueous Ag/Ag^+.

[10] = tested on: DU-145 (prostate) cells; test: MTT cytotoxicity assay, DU-145; format: cell-based; settings: Homo sapiens, 48 h incubation (b12: 72 h), n = 3, read-out: IC50 ± SEM DU-145
Experimental: as §1, §2, §3

[11] = tested on: CDC25A; test: qPCR relative gene expression in T24 cells, CDC25A; format: cell-based, human; settings: 48 h; 2c at 32 µM, 2d at 68 µM; normalized to B2M, 2^−ΔΔCt vs vehicle; mean ± SEM, n = 5
Experimental: as §4, §5

[12] = tested on: GSTP1; test: qPCR relative gene expression in T24 cells, GSTP1; format: cell-based, human; settings: 48 h; 2c at 32 µM, 2d at 68 µM; normalized to B2M, 2^−ΔΔCt vs vehicle; mean ± SEM, n = 5
Experimental: as §4, §5

[13] = tested on: TP53; test: qPCR relative gene expression in T24 cells, TP53; format: cell-based, human; settings: 48 h; 2c at 32 µM, 2d at 68 µM; normalized to B2M, 2^−ΔΔCt vs vehicle; mean ± SEM, n = 5
Experimental: as §4, §5

[14] = tested on: BCL2; test: qPCR relative gene expression in T24 cells, BCL2; format: cell-based, human; settings: 48 h; 2c at 32 µM, 2d at 68 µM; normalized to B2M, 2^−ΔΔCt vs vehicle; mean ± SEM, n = 5
Experimental: as §4, §5

[15] = tested on: leukemia L1210; parameters: method as in PMID 3746824; settings: cited from earlier work
[16] = tested on: human colon adenocarcinoma; parameters: method as in PMID 3746824; settings: cited from earlier work

CCCCCCCC(=O)C1=C(Nc2ccccc2)C(=O)C=C(Nc2ccccc2)C1=O [2d, 3-Octanoyl-2,5-bis(phenylamino)-1,4-benzoquinone]
IC50 [1]: > 100 µM
IC50 [2]: 28.7 µM
Relative Expression Levels in T24 Cells, HRAS [3]: 1.33 ± 0.06
Relative Expression Levels in T24 Cells, HDAC3 [4]: 1.02 ± 0.05
Relative Expression Levels in T24 Cells, HDAC4 [5]: 1.01 ± 0.02
Relative Expression Levels in T24 Cells, mTOR [6]: 0.95 ± 0.02
IC50 [7]: 34 ± 3.7 µM
Relative Expression Levels in T24 Cells, GSR [8]: 1.07 ± 0.04
−E^I 1/2 [9]: 590 mV
−E^II 1/2 [9]: 910 mV
IC50 [10]: 23.5 ± 2.1 µM
Relative Expression Levels in T24 Cells, CDC25A [11]: 1.07 ± 0.03
Relative Expression Levels in T24 Cells, GSTP1 [12]: 1.21 ± 0.04
Relative Expression Levels in T24 Cells, TP53 [13]: 1.01 ± 0.04
Relative Expression Levels in T24 Cells, BCL2 [14]: 0.8 ± 0.04

CCCCCC(=O)C1=C(Nc2ccccc2)C(=O)C=C(Nc2ccccc2)C1=O [2c, 3-Hexanoyl-2,5-bis(phenylamino)-1,4-benzoquinone]
IC50 [1]: > 100 µM
IC50 [2]: 30.7 µM
Relative Expression Levels in T24 Cells, HRAS [3]: 1.07 ± 0.13
Relative Expression Levels in T24 Cells, HDAC3 [4]: 1.03 ± 0.15
Relative Expression Levels in T24 Cells, HDAC4 [5]: 1.08 ± 0.13
Relative Expression Levels in T24 Cells, mTOR [6]: 0.99 ± 0.13
IC50 [7]: 16.3 ± 1.7 µM
Relative Expression Levels in T24 Cells, GSR [8]: 0.96 ± 0.05
−E^I 1/2 [9]: 570 mV
−E^II 1/2 [9]: 1090 mV
IC50 [10]: 45.2 ± 4.5 µM
Relative Expression Levels in T24 Cells, CDC25A [11]: 1.54 ± 0.13
Relative Expression Levels in T24 Cells, GSTP1 [12]: 0.9 ± 0.08
Relative Expression Levels in T24 Cells, TP53 [13]: 1.06 ± 0.11
Relative Expression Levels in T24 Cells, BCL2 [14]: 1.28 ± 0.15

CC(C)c1ccc(NC2=C(Cl)C(=O)C(Nc3ccc(C(C)C)cc3)=C(Cl)C2=O)cc1 [B]
activity against the leukemia L1210 screening in vitro [15]: active
in vitro inhibitory activity against human colon adenocarcinoma proliferation [16]: good in vitro inhibitory activity
